Target: human PAD4 (Homo sapiens (Human), UniProt Q9UM07)
Assay: In Vitro PAD4 BAEE Biochemical Assay
Details: geometric mean of multiple experiments
Procedure, shortened: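 Deimination of BAEE substrate (3 mM) measured as ammonia via o-phthalaldehyde–DTT isoindole fluorescence, 405/535 nm. Tag-free bacterially expressed human PAD4 at 5 nM with 2 mM calcium chloride, pH 7.6 MOPS buffer, 30 min compound preincubation then 2 h reaction, both at 25 °C.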

[1] = human PAD4, BAEE substrate, 5 nM PAD4, 2 mM calcium chloride, 3 mM BAEE
[2] = recombinant PAD4 5 nM, 2 mM calcium chloride, 3 mM BAEE substrate

Chain of human PAD4 (Q9UM07 2-663): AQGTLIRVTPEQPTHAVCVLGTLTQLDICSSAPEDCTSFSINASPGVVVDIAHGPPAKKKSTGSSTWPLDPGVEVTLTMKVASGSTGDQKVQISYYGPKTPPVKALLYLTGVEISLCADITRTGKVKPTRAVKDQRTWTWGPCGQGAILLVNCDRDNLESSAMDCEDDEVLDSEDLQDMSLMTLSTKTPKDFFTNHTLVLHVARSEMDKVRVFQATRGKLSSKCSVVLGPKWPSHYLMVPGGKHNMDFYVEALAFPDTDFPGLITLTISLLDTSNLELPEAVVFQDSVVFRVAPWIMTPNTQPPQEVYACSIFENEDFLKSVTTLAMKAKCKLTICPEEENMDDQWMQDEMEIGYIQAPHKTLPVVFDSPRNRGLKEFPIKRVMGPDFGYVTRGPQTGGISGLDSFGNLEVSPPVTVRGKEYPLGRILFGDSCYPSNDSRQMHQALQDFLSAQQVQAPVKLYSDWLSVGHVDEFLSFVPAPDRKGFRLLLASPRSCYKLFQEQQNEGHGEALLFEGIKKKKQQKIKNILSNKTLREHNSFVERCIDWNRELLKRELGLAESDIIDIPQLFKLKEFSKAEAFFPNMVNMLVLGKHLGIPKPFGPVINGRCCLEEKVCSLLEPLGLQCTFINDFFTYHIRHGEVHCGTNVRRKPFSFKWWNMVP

| Compound | IC50 [1] [nM] | IC50 [2] [nM] |
| --- | --- | --- |
| CS(=O)(=O)N(c1ccc2cc(-c3nc4cc(C(=O)N5CCC[C@@H](N)C5)ccc4n3C3CC3)n(CC3CC3)c2n1)C(F)F [Example 54, (R)-N-(2-(5-(3-aminopiperidine-1-carbonyl)-1-cyclopropyl-1H-benzo[d]imidazol-2-yl)-1-(cyclopropylmethyl)-1H-pyrrolo[2,3-b]pyridin-6-yl)-N-(difluoromethyl) methanesulfonamide] | 37.4 | – |
| COc1cc(C(=O)N2[C@H]3CC[C@@H]2[C@H](N)C3)cc2nc(-c3cc4ccc([C@@H](C)NC(=O)C56CC(F)(C5)C6)nc4n3CC3CC3)n(C)c12 [Example 121, N-((R)-1-(2-(5-((1R,2R,4S)-2-amino-7-azabicyclo[2.2.1]heptane-7-carbonyl)-7-methoxy-1-methyl-1H-benzo[d]imidazol-2-yl)-1-(cyclopropylmethyl)-1H-pyrrolo[2,3-b]pyridin-6-yl)ethyl)-3-fluorobicyclo[1.1.1]pentane-1-carboxamide] | 46.3 | – |
| COc1cc(C(=O)N2[C@H]3CC[C@@H]2[C@H](N)C3)cc2nc(-c3cc4ccc([C@@H](C)NS(C)(=O)=O)nc4n3CC3CC3)n(C)c12 [Example 243, N-((R)-1-(2-(5-((1R,2R,4S)-2-amino-7-azabicyclo[2.2.1]heptane-7-carbonyl)-7-methoxy-1-methyl-1H-benzo[d]imidazol-2-yl)-1-(cyclopropylmethyl)-1H-pyrrolo[2,3-b]pyridin-6-yl)ethyl)methanesulfonamide] | 52.8 | – |
| CCc1nc(C)c(-c2ncccc2-c2ccc3cc(-c4nc5cc(C(=O)N6CCC[C@@H](N)C6)cc(OC)c5n4C)n(CC4CC4)c3n2)s1 [Example 271, (R)-(3-aminopiperidin-1-yl)(2-(1-(cyclopropylmethyl)-6-(2-(2-ethyl-4-methylthiazol-5-yl)pyridin-3-yl)-1H-pyrrolo[2,3-b]pyridin-2-yl)-7-methoxy-1-methyl-1H-benzo[d]imidazol-5-yl)methanone] | 134 | – |
| Cc1cc2c(cc1C(=O)N1C[C@H]3CC[C@@H]1[C@@H]3N)nc(-c1cc3ccc(N(C(F)F)S(C)(=O)=O)nc3n1CC1CC1)n2C1CC1 [Example 59, N-(2-(5-((1R,4R,7R)-7-amino-2-azabicyclo[2.2.1]heptane-2-carbonyl)-1-cyclopropyl-6-methyl-1H-benzo[d]imidazol-2-yl)-1-(cyclopropylmethyl)-1H-pyrrolo [2,3-b]pyridin-6-yl)-N-(difluoromethyl) methanesulfonamide] | 9410 | – |
| CN(c1ccc2cc(-c3nc4cc(C(=O)N5CCC[C@@H](N)C5)cc5c4n3CCO5)n(CC3CC3)c2n1)S(C)(=O)=O [Example 89, (R)-N-(2-(7-(3-aminopiperidine-1-carbonyl)-3,4-dihydro-5-oxa-1,2a-diazaacenaphthylen-2-yl)-1-(cyclopropylmethyl)-1H-pyrrolo[2,3-b]pyridin-6-yl)-N-methylmethanesulfonamide] | 812 | – |
| COc1cc(C(=O)N2CCC[C@@H](N)C2)cc2nc(-c3cc4cc(F)c([C@@H](C)NC(=O)C56CC(F)(C5)C6)cc4n3CC3CC3)n(C)c12 [Example 145, N-((R)-1-(2-(5-((R)-3-aminopiperidine-1-carbonyl)-7-methoxy-1-methyl-1H-benzo[d]imidazol-2-yl)-1-(cyclopropylmethyl)-5-fluoro-1H-indol-6-yl)ethyl)-3-fluorobicyclo[1.1.1]pentane-1-carboxamide] | 62.8 | – |
| COc1cc(C(=O)N2CCCC3(CCCCN3)C2)cc2nc(-c3cc4ccc(N(C(F)F)S(C)(=O)=O)nc4n3CC3CC3)n(C)c12 (stereo not drawn) [Example 68, N-(1-(cyclopropylmethyl)-2-(7-methoxy-1-methyl-5-(1,8-diazaspiro[5.5]undecane-8-carbonyl)-1H-benzo[d]imidazol-2-yl)-1H-pyrrolo[2,3-b]pyridin-6-yl)-N-(difluoromethyl) methanesulfonamide] | 50000 | – |

The remaining lines, values ahead:

| IC50 [1] [nM] | IC50 [2] [nM] | Compound |
| --- | --- | --- |
| 1830 | – | COc1cc(C(=O)N2C[C@H](N)CC[C@@H]2C)cc2nc(-c3cc4ccc(-c5cccc6c5NC(=O)C6)nc4n3CC3CC3)n(C)c12 [Example 259, 7-(2-(5-((2S,5R)-5-amino-2-methylpiperidine-1-carbonyl)-7-methoxy-1-methyl-1H-benzo[d]imidazol-2-yl)-1-(cyclopropylmethyl)-1H-pyrrolo[2,3-b]pyridin-6-yl)indolin-2-one] |
| 20900 | – | COc1cc(C(=O)N[C@@H]2CCNC2)cc2nc(-c3cc4ccc(N(C(F)F)S(C)(=O)=O)nc4n3CC3CC3)n(C)c12 [Example 72, (R)-2-(1-(cyclopropylmethyl)-6-((N-(difluoromethyl)methyl)sulfonamido)-1H-pyrrolo[2,3-b]pyridin-2-yl)-7-methoxy-1-methyl-N-(pyrrolidin-3-yl)-1H-benzo[d] imidazole-5-carboxamide] |
| 181 | – | COc1cc(C(=O)N2CCC[C@@H](N)C2)cc2nc(-c3cc4ccc(N(CC(F)F)S(C)(=O)=O)nc4n3CC3CC3)n(C)c12 [Example 19, (R)-N-(2-(5-(3-aminopiperidine-1-carbonyl)-7-methoxy-1-methyl-1H-benzo[d]imidazol-2-yl)-1-(cyclopropylmethyl)-1H-pyrrolo [2,3-b]pyridin-6-yl)-N-(2,2-difluoroethyl) methanesulfonamide] |
| 199 | – | COc1cc(C(=O)N2C[C@H](N)CCN2C)cc2nc(-c3cc4ccc(C(C)(C)NC(=O)c5ccccc5)nc4n3CC3CC3)n(C)c12 [Example 209] |
| – | 111 | COc1cc(C(=O)N2C[C@H](N)[C@@H]3CC[C@H]2C3)cc2nc(-c3cc4ccc([C@@H](C)NC(=O)c5ccc(C(F)F)nc5)nc4n3CC3CC3)n(C3CC3)c12 [Example 309, N-((R)-1-(2-(5-((1S,4R,5R)-4-amino-2-azabicyclo[3.2.1]octane-2-carbonyl)-1-cyclopropyl-7-methoxy-1H-benzo[d]imidazol-2-yl)-1-(cyclopropylmethyl)-1H-pyrrolo[2,3-b]pyridin-6-yl)ethyl)-6-(difluoromethyl)nicotinamide] |
| 88.2 | – | CCN(c1ccc2cc(-c3nc4cc(C(=O)N5C[C@H](N)CC[C@@H]5C)cc(OC)c4n3C)n(CC3CC3)c2n1)S(C)(=O)=O [Example 30, N-(2-(5-((2S,5R)-5-amino-2-methylpiperidine-1-carbonyl)-7-methoxy-1-methyl-1H-benzo[d]imidazol-2-yl)-1-(cyclopropylmethyl)-1H-pyrrolo [2,3-b]pyridin-6-yl)-N-ethylmethanesulfonamide] |
| 90.8 | – | COc1cc(C(=O)N2CCC[C@@H](N)C2)cc2nc(-c3cc4ccc([C@@H](C)NC(=O)c5ccccc5)nc4n3CC3CC3)n(C3CC3)c12 [Example 126, N-((R)-1-(2-(5-((R)-3-aminopiperidine-1-carbonyl)-1-cyclopropyl-7-methoxy-1H-benzo[d]imidazol-2-yl)-1-(cyclopropylmethyl)-1H-pyrrolo[2,3-b]pyridin-6-yl)ethyl)benzamide] |
| 300 | – | COc1cc(C(=O)N2CC[C@@H](C)[C@@H](N)C2)cc2nc(-c3cc4ccc(N(C5CC5)S(C)(=O)=O)nc4n3CC3CC3)n(C)c12 [Example 34, N-(2-(5-((3R,4R)-3-amino-4-methylpiperidine-1-carbonyl)-7-methoxy-1-methyl-1H-benzo[d]imidazol-2-yl)-1-(cyclopropylmethyl)-1H-pyrrolo [2,3-b]pyridin-6-yl)-N-cyclopropylmethanesulfonamide] |
| – | 277 | COc1cc(C(=O)N2C[C@H](N)[C@@H]3CC[C@H]2C3)cc2nc(-c3cc4ccc([C@@H](C)NC(=O)c5ccccc5OC(F)(F)F)nc4n3CC3CC3)n(C)c12 [Example 294, N-((R)-1-(2-(5-((1S,4R,5R)-4-amino-2-azabicyclo [3.2.1]octane-2-carbonyl)-7-methoxy-1-methyl-1H-benzo[d]imidazol-2-yl)-1-(cyclopropylmethyl)-1H-pyrrolo[2,3-b]pyridin-6-yl)ethyl)-2-(trifluoromethoxy)benzamide] |
| 249 | – | CCCCS(=O)(=O)N(C)c1ccc2cc(-c3nc4cc(C(=O)N5CCC[C@@H](N)C5)cc(OC)c4n3C)n(CC3CC3)c2n1 [Example 14, (R)-N-(2-(5-(3-aminopiperidine-1-carbonyl)-7-methoxy-1-methyl-1H-benzo[d]imidazol-2-yl)-1-(cyclopropylmethyl)-1H-pyrrolo [2,3-b]pyridin-6-yl)-N-methylbutane-1-sulfonamide] |
| 1180 | – | COc1cc(C(=O)N2C[C@H](N)CC[C@@H]2C)cc2nc(-c3cc4ccc(N5CCCC5=O)nc4n3CC3CC3)n(C)c12 [Example 279, 1-(2-(5-((2S,5R)-5-amino-2-methylpiperidine-1-carbonyl)-7-methoxy-1-methyl-1H-benzo[d]imidazol-2-yl)-1-(cyclopropylmethyl)-1H-pyrrolo[2,3-b]pyridin-6-yl)pyrrolidin-2-one] |
| – | 62 | COc1cc(C(=O)N2C[C@H](N)[C@@H]3CC[C@H]2C3)cc2nc(-c3cc4ccc([C@@H](C)NC(=O)C5(OC)CC5)nc4n3CC3CC3)n(C)c12 [Example 322, N-((R)-1-(2-(5-((1S,4R,5R)-4-amino-2-azabicyclo[3.2.1]octane-2-carbonyl)-7-methoxy-1-methyl-1H-benzo[d]imidazol-2-yl)-1-(cyclopropylmethyl)-1H-pyrrolo[2,3-b]pyridin-6-yl)ethyl)-1-methoxycyclopropane-1-carboxamide] |
| 77.3 | – | COc1cc(C(=O)N2CCC[C@@H](N)[C@H]2C)cc2nc(-c3cc4ccc(N(C(F)F)S(C)(=O)=O)nc4n3CC3CC3)n(C)c12 [Example 33, N-(2-(5-((2R,3R)-3-amino-2-methylpiperidine-1-carbonyl)-7-methoxy-1-methyl-1H-benzo[d]imidazol-2-yl)-1-(cyclopropylmethyl)-1H-pyrrolo [2,3-b]pyridin-6-yl)-N-(difluoromethyl) methanesulfonamide] |

Source: patent US11878965B2, “Inhibitors of peptidylarginine deiminases” (Gilead Sciences, Inc., priority 2020, dated 2024)
